From patent publication US9771351B2, “Wnt signaling inhibitor” (KYOWA HAKKO KIRIN CO., LTD., priority 2013, dated 2017) come the findings set out here.

One experiment relates to T-cell factor (TCF)-luciferase reporter using Wnt pathway as index. Nature of the experiment: Inhibitory activity against TCF-luciferase reporter using Wnt pathway as index (DLD-1/TCF-Luc cells). Format: cell-based, human. The settings on record: 1 μmol/L; DLD-1/TCF-Luc cells; luciferase activity after 18 hours. On the procedure: Test Example 1: Inhibitory Activity Against T-Cell Factor (TCF)-Luciferase Reporter Using Wnt Pathway as Index
The inhibitory activity of test compounds against Wnt pathway was evaluated by the following method.
A human colorectal adenocarcinoma cell line DLD-1 (Japanese Collection of Research Bioresources) was cultured in RPMI-1640 medium (Gibco/Life Technologies, Inc.) containing 10% fetal bovine serum (Gibco/Life Technologies, Inc.), 10 mmol/L of a 4-(2-hydroxyethyl)-1-piperazineethanesulfonic acid (HEPES) buffer solution (Gibco/Life Technologies, Inc.), 1 mmol/L of a sodium pyruvate solution (Gibco/Life Technologies, Inc.), 4.5 g/L of a D-(+)-glucose solution (Sigma-Aldrich, Inc.), 100 units/mL penicillin (Gibco/Life Technologies, Inc.) and 100 μg/mL of streptomycin (Gibco/Life Technologies, Inc.) under the conditions of 37° C. and 5% carbon dioxide gas. The DLD-1 cells were seeded in a 10 cm dish, and 20 μg of a luciferase gene plasmid pGL4.27 having a TCF responsive sequence inserted therein was transfected into the cells using 10 μL of Attractene (Qiagen, Inc.) according to the protocol attached to the product. A stably expressing cell line (DLD-1/TCF-Luc) was selected using […] of hygromycin B (Wako Pure Chemical Industries Ltd.). The DLD-1/TCF-Luc cells were detached with trypsin and seeded in a 384-well plate, and a test compound was added at different concentrations. After 18 hours, the luciferase activity was measured using Steady-Glo™ Luciferase Assay System (Promega, Inc.).
The inhibition ratio was obtained according to the following formula 1. The inhibition ratio (%) of the compound of the present invention at 1 μmol/L against the TCF-luciferase reporter using the Wnt pathway as an index is shown in Table 6. [Math. 1] Inhibition ratio (%)=100−{(luciferase activity when test compound was added)−(luciferase activity of blank)}/{(luciferase activity of control)−(luciferase activity of blank)}×100 Formula 1
On the technique in general: Reporter assays use an easily measured gene product as a stand-in for the process of interest.
“4-(3-{[1-(6-Aminopyrimido[3,4-d]pyrimidin-4-yl)piperidin-4-yl]methyl}-2-oxo-3,4-dihydroquinazolin-1(2H)-yl)picolinonitrile [Compound 33]”: the “Inhibition ratio (%) at 1 μmol/L” value is reported as 82%. Still for that read-out and setting: then `N#Cc1ccccc1CN1C(=O)N(CC2CCN(c3ncnc4cc5c(cc34)OCO5)CC2)Cc2ccccc21` [Compound 3, 2-[(3-{[1-([1,3]Dioxo[4,5-g]quinazolin-8-yl)piperidin-4-yl]methyl}-2-oxo-3,4-dihydroquinazolin-1(2H)-yl)methyl]benzo nitrile], with 77%; and `CNC(=O)c1ccc2c(N3CCC(CN4Cc5ccccc5N(c5cccc(C#N)c5)C4=O)CC3)ncnc2c1` [Compound 26, 4-(4-{[1-(3-Cyanophenyl)-2-oxo-1,2-dihydroquinazolin-3(4H)-yl]methyl}piperidin-1-yl)-N-methylquinazoline-7-carboxamido], with 77%.

Staying with this experiment, now noted: Homo sapiens; 1 μmol/L; DLD-1/TCF-Luc cells; luciferase activity after 18 hours; read-out: Inhibition ratio (%) at 1 μmol/L.
As to `N#Cc1ccccc1CN1C(=O)N(CC2CCN(c3nnnc4ccccc34)CC2)Cc2ccccc21` [Compound 4, 2-[(3-{[1-(Benzo[d][1,2,3]triazin-4-yl)piperidin-4-yl]methyl}-2-oxo-3,4-dihydroquinazolin-1(2H)-yl)methyl]benzonitrile], the inhibition at 1 µM came to 74%. On to `COc1cc2ncnc(N3CCC(CN4Cc5ccccc5N(c5cccc(C#N)c5)C4=O)CC3)c2cc1OC` [Compound 6, 3-(3-{[1-(6,7-Dimethoxyquinazolin-4-yl)piperidin-4-yl]methyl}-2-oxo-3,4-dihydroquinazolin-1(2H)-yl)benzonitrile], for which the inhibition at 1 µM came out at 76%. `COc1cc2ncnc(N3CCC(CN4Cc5ccccc5N(c5cc(C#N)ccn5)C4=O)CC3)c2cc1OC` [Compound 10, 2-(3-{[1-(6,7-Dimethoxyquinazolin-4-yl)piperidin-4-yl]methyl}-2-oxo-3,4-dihydroquinazolin-1(2H)-yl)isonicotinonitrile]: the inhibition at 1 µM was determined as 79%. On the same count and under the same terms, in the case of `COc1cc2ncnc(N3CCC(CN4Cc5ccccc5N(c5ccnc(C#N)n5)C4=O)CC3)c2cc1OC` [Compound 11, 4-(3-{[1-(6,7-Dimethoxyquinazolin-4-yl)piperidin-4-yl]methyl}-2-oxo-3,4-dihydroquinazolin-1(2H)-yl)pyrimidine-2-carbonitrile] it was 87%; in that of `COc1cc2ncnc(N3CCC(CN4Cc5ccccc5N(c5ccnc(C(N)=O)c5)C4=O)CC3)c2cc1OC` [Compound 14, 4-(3-{[1-(6,7-Dimethoxyquinazolin-4-yl)piperidin-4-yl]methyl}-2-oxo-3,4-dihydroquinazolin-1(2H)-yl)picolinamide], 76%; in that of `COc1cc2ncnc(N3CC(CN4Cc5ccccc5N(c5ccnc(C#N)c5)C4=O)C3)c2cc1OC` [Compound 17, 4-(3-{[1-(6,7-Dimethoxyquinazolin-4-yl)azetidin-3-yl]methyl}-2-oxo-3,4-dihydroquinazolin-1(2H)-yl)picolinonitrile], 76%. Take `COc1cc2ncnc(N3CCC(NC4Cc5ccccc5N(c5ccnc(C#N)c5)C4=O)CC3)c2cc1OC` (stereo not drawn) [Compound 19, 4-{3-[1-(6,7-Dimethoxyquinazolin-4-yl)piperidin-4-ylamino]-2-oxo-3,4-dihydroquinolin-1(2H)-yl}picolinonitrile]: the inhibition at 1 µM was found to be 91%.

Regarding `COc1cc2ncnc(N3CCC(Cn4c(=O)c5ccccc5n(-c5cccc(C#N)c5)c4=O)CC3)c2cc1OC` [Compound 20, 3-(3-{[1-(6,7-Dimethoxyquinazolin-4-yl)piperidin-4-yl]methyl}-2,4-dioxo-3,4-dihydroquinazolin-1(2H)-yl)benzonitrile], the inhibition at 1 µM was found to be 83%.

Consider `N#Cc1cc(N2C(=O)N(CC3CCN(c4ncnc5cnccc45)CC3)Cc3cc(F)cnc32)ccn1` [Compound 23, 4-(6-Fluoro-2-oxo-3-{[1-(pyrido[3,4-d]pyrimidin-4-yl)piperidin-4-yl]methyl}-3,4-dihydropyrido[2,3-d]pyrimidin-1(2H)-yl)picolinonitrile], for which the inhibition at 1 µM stood at 84%.
